The nature of data set [1]: testings with Corazolin (Corazol), mice. The class given is in vivo. As to conditions: mouse, in vivo; 150 mg/kg of weight; read-out: death of the animals.
Another data set relates to Corazol convulsions. As to the kind of experiment: testings with Corazolin (Corazol), mice. The data set is classed as in vivo. Particulars: 150 mg/kg of weight.
The next data set relates to Corazol twitches. As to the kind of experiment: comparative interaction test with Corazol, rats. The data set is classed as in vivo. Particulars: M ± m.
The subject of data set [2] is bioelectric activity of rats' brain. As to the kind of experiment: spontaneous bioelectrical activity of rats' brain (EEG, implanted electrodes). The class given is in vivo. Particulars: 90 mg/kg.
The nature of data set [3]: orientation motive activity of mice, automated registration of movements. As to conditions: for Number of movements in 10 min in register: M ± m. The data set is classed as in vivo, mice (male). How it is done: Experiments were conducted in vivo on male mice weighing 18-22 g and male rats weighing 200-250 g, as well as in vitro on the isolated organs: a guinea pig's ileum and a rat's seminal effervesces.

In another data set the test system is hexenal sleep. As to the kind of experiment: comparative interaction test with hexenal, rats. The data set is classed as in vivo. As to conditions: for Hexanal sleep duration: M ± m.
The format of data set [4] is in vivo. As to conditions: in words.

`C1CCc2nnnn2CC1` [Corazolin, reference compound]: in data set [1], the mortality is 100%. Moreover, the “time to death of the animals” value in the data set with Corazol convulsions was in the range of 2 to 4 min.

Turning to `NCC(CC(=O)O)c1ccccc1` (centres unmarked) [phenibut, reference compound], the “Corazol twitches, latent period” value amounted to 53.0 ± 5.4 min in the data set with Corazol twitches (100 mg/kg) and 50.0 ± 2.8 min in the data set on Corazol twitches (200 mg/kg). The “Maximal effect appearance time from the start of experiment” value in data set [2] is listed as 40 min. The Nature of effect entry in data set [2] is “Permanent”. In addition, in data set [2], the “Nature of effect, effective for” value was “over 3 hrs”. Further, the “Index, fast activ.” value in data set [2] (M ± m) was found to be 77 ± 0.9%. Besides, in data set [2] (M ± m), the “Index, slow activ.” value is reported as 87 ± 3.1%. Besides, the “Number of movements in 10 min in register” value in data set [3] (100 mg/kg intraperitoneally) was 434 ± 4.4; in data set [3] (200 mg/kg intraperitoneally), 186 ± 8.7; in data set [3] (500 mg/kg intraperitoneally), 19 ± 3.0. Besides, in data set [3] (in words), the motor activity entry is listed as “sharply inhibit motor activity as a dose is increased”. Also, the Hexanal sleep duration in the data set on hexenal sleep (100 mg/kg) came out at 110.0 ± 8.3 min; in the data set with hexenal sleep (200 mg/kg), 130.0 ± 8.5 min. The hexenal sleep result in the data set with hexenal sleep (in words) is reported as “prolong hexenal sleep”. Also, the “tonico-extensor component of Corazol and strychnine twitches and electrical shock” value in data set [4] was “reduce the tonico-extensor component of Corazol and strychnine twitches and electrical shock”.

The record behind these values is patent US5643954A, “Method of preventing and alleviating stress in a healthy mammal in need thereof” (priority 1993, dated 1997).
